Molecular target: Potassium voltage-gated channel subfamily A member 5 (Homo sapiens, UniProt P22460)
Assay: Inhibition of human Kv1.5 channel expressed in mouse L929 cells by EP voltage clamp technique

Sequence of Potassium voltage-gated channel subfamily A member 5 (P22460 whole entry): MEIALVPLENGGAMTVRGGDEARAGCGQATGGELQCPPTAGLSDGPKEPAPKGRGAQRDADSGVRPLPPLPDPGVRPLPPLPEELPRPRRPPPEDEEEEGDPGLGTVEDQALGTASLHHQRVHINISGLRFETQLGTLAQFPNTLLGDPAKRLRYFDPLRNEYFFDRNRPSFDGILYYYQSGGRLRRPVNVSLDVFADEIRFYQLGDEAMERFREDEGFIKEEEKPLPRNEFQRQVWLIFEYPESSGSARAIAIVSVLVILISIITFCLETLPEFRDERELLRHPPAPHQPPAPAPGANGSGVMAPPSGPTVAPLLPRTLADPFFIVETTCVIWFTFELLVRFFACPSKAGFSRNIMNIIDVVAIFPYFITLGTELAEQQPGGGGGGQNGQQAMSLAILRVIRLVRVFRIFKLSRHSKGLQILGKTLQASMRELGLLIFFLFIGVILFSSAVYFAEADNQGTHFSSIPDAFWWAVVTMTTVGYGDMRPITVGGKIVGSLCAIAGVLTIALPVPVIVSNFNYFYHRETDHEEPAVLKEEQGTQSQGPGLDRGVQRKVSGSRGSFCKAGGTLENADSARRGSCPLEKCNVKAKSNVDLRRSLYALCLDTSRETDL

IC50 [nM]	Structure (SMILES)
440	CCN(CC)C(=O)C1C(C)=Nc2ccnn2C1c1ccc(Cl)c(Cl)c1 (stereo unspecified) [7-(3,4-dichlorophenyl)-N,N-diethyl-5-methyl-4,7-dihydropyrazolo[1,5-a]pyrimidine-6-carboxamide]
200	CC1=Nc2ccnn2C(c2sc3ccccc3c2C)C1C(=O)N1CCN(c2ccc(F)cc2)CC1 (stereo unspecified) [(4-(4-fluorophenyl)piperazin-1-yl)(5-methyl-7-(3-methylbenzo[b]thiophen-2-yl)-4,7-dihydropyrazolo[1,5-a]pyrimidin-6-yl)methanone]
160	CC1=Nc2ccnn2C(c2cccc(Cl)c2Cl)C1C(=O)N1CCN(c2ccc(F)cc2)CC1 (stereo unspecified) [(7-(2,3-dichlorophenyl)-5-methyl-4,7-dihydropyrazolo[1,5-a]pyrimidin-6-yl)(4-(4-fluorophenyl)piperazin-1-yl)methanone]
200	COC[C@@H]1CCCN1C(=O)C1C(C)=Nc2ccnn2C1c1ccc(Cl)c(Cl)c1 (stereo partly drawn) [(7-(3,4-dichlorophenyl)-5-methyl-4,7-dihydropyrazolo[1,5-a]pyrimidin-6-yl)((S)-2-(methoxymethyl)pyrrolidin-1-yl)methanone]
190	CC1=Nc2ccnn2C(c2cccc(Cl)c2)C1C(=O)N1CCN(c2ccc(F)cc2)CC1 (stereo unspecified) [(7-(3-chlorophenyl)-5-methyl-4,7-dihydropyrazolo[1,5-a]pyrimidin-6-yl)(4-(4-fluorophenyl)piperazin-1-yl)methanone]
440	CC1=Nc2ccnn2C(c2ccc(Cl)cc2)C1C(=O)N1CCN(c2ccc(F)cc2)CC1 (stereo unspecified) [(7-(4-chlorophenyl)-5-methyl-4,7-dihydropyrazolo[1,5-a]pyrimidin-6-yl)(4-(4-fluorophenyl)piperazin-1-yl)methanone]
160	CC1=Nc2ccnn2C(c2cc3ccccc3o2)C1C(=O)N1CCN(c2ccc(F)cc2)CC1 (stereo unspecified) [(7-(benzofuran-2-yl)-5-methyl-4,7-dihydropyrazolo[1,5-a]pyrimidin-6-yl)(4-(4-fluorophenyl)piperazin-1-yl)methanone]
160	CC1=Nc2ccnn2[C@H](c2cccc(Cl)c2Cl)C1C(=O)N1CCN(c2ccc(F)cc2)CC1 (stereo partly drawn) [(S)-(7-(2,3-dichlorophenyl)-5-methyl-4,7-dihydropyrazolo[1,5-a]pyrimidin-6-yl)(4-(4-fluorophenyl)piperazin-1-yl)methanone]
160	CC1=Nc2ccnn2C(c2ccc(Cl)c(Cl)c2)C1C(=O)NCc1ccccc1 (stereo unspecified) [N-benzyl-7-(3,4-dichlorophenyl)-5-methyl-4,7-dihydropyrazolo[1,5-a]pyrimidine-6-carboxamide]
440	CCCCNC(=O)C1C(C)=Nc2ccnn2C1c1ccc(Cl)c(Cl)c1 (stereo unspecified) [N-butyl-7-(3,4-dichlorophenyl)-5-methyl-4,7-dihydropyrazolo[1,5-a]pyrimidine-6-carboxamide]
190	CC1=Nc2ccnn2C(c2ccc(Cl)c(Cl)c2)C1C(=O)N1CCCCCC1 (stereo unspecified) [azepan-1-yl(7-(3,4-dichlorophenyl)-5-methyl-4,7-dihydropyrazolo[1,5-a]pyrimidin-6-yl)methanone]
